From patent US20250281424A1 (New York Blood Center, Inc, priority 2020, published 2025)
Entries after “also recorded” stand apart in the source; their conditions may differ.

Experiments:
[1] = tested on: human platelets; experiment: PF4-KKO induced platelet activation, P-selectin, human platelets; format: cell-based; details: human platelet activation assays; 20 μM and 40 μM (FIGS. 8 and 9)
[2] = target: T1, human PF4 (Homo sapiens, UniProt P02776); experiment: Inhibition of PF4 tetramer formation (BS3 cross-linking, SDS-PAGE); format: biochemical; details: for inhibition at 5 µM: 5 μM inhibitor; for inhibition at 5 µM / inhibition at 10 µM / inhibition at 1 µM / inhibition at 3 µM: read-out: % inhibition of PF4 tetramer formation at single concentration of inhibitor; for inhibition at 10 µM: 10 μM inhibitor (column A); for IC50: read-out: IC50 of PF4 tetramer formation inhibition; for inhibition at 1 µM: 1 μM inhibitor; for inhibition at 3 µM: 3 μM inhibitor (column A)
T1 construct: PF4 is a 70 amino acid, lysine-rich 7.8 kDa platelet-specific protein; made in house; host or cells: Escherichia coli BL21DE3 pLysS (pT7-7) and/or Drosophila S2 cells
T1 sequence (P02776 32-101): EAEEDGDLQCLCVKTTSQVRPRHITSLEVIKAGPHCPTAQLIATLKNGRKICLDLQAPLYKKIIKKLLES
In short: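 Recombinant human wild-type PF4 (E. coli-expressed, heparin-purified), 10 μg/ml in PBS, incubated with compound 15 min at 37° C or 60 min at room temperature, then cross-linked with 0.2 mM BS3 for 30 min at room temperature. Reducing 12% SDS-PAGE; bands quantified as % tetramer, trimer, dimer, monomer versus compound-free control.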

[3] = tested on: FcγRIIA transgenic murine platelets; experiment: PF4-KKO induced platelet activation, P-selectin, FcγRIIA transgenic murine platelets; format: cell-based, mouse; details: for normalized P-selectin levels: FIG. 22; for preventing P-selectin expression: FcγRIIA transgenic murine platelets, 50 μM compound, 37.5 μg/ml PF4, 50 μg/ml KKO (FIGS. 14-21)
Description: Whole blood was diluted with 1× Tyrode buffer (5 mM N-2-hydroxyethylpiperazine-N′-2-ethanesulfonic acid, 0.1% BSA, 134 mM NaCl, 0.3 mM NaH2PO4, 3 mM KCl, 2 mM MgCl2, 12 mM NaHCO3, 5 mM glucose) with 0.02 U/ml apyrase and 1 μM PGE1 and centrifuged at 100 g for 10 min. Platelet rich plasma (PRP) was carefully removed and centrifuged at 1000 g for 5 min. Platelet pellet was resuspended in Tyrode buffer with 0.02 U/ml apyrase at 2×10^8/ml concentration at 37° C. PF4 antagonists are diluted in Tyrode buffer, and are incubated with 10 μg/ml human PF4 purified protein at room temperature for 30 min. The PF4-drug complex is then incubated with 1×10^8/ml platelets with 1 mM CaCl2, 0.1% BSA at 37° C. for 10 min. 40 μg/ml KKO and 10 μg/ml anti-CD62P (P-selectin) antibodies are added into the reaction. One milliliter ice-cold PBS is added to each reaction after 5 min of incubation. Labelled platelets are then analyzed by a BD Accuri C6 flow cytometer. The results are represented by both the mean fluorescence intensity and by the percentage of positive platelets.
37.5 μg/ml PF4 with/without 50 μM of the exemplified compound incubated with 3×10^7/ml platelets; 50 μg/ml KKO.

[4] = Human microsome stability; format: in vitro ADME; details: for half-life at 0.5 μM: read-out: Human microsome stability Half life t1/2
Text: (§1) Certain exemplified compounds were examined for ADMET (absorption, distribution, metabolism, excretion and toxicity) profiling using conventional assays with the results shown in the Tables 3A-3C below.

[5] = Mouse microsome stability; format: in vitro ADME; details: for half-life at 0.5 μM: Mouse microsomes, compound conc = 0.5 μM, n = 1, read-out: Mouse microsome stability Half life t1/2
Text: as §1

[6] = Human microsomes, compound conc = 0.5 μM, n = 1

Structure (SMILES)	inhibition at 5 µM [2]	inhibition at 10 µM [2]	IC50 [2]	further results
O=C(c1ccc2c(c1)C(=O)C(C(=O)NCCc1ccc3c(c1)OCO3)C2=O)c1ccc2c(c1)C(=O)C(C(=O)NCCc1ccc3c(c1)OCO3)C2=O (stereo not drawn) [Example 18, 5,5′-carbonylbis(1,3-dioxo-indan-2-carboxylic acid (2-benzo[1,3]dioxol-5-yl-ethyl)-amide)]	65%	75%	1810 nM	PF4-KKO induced platelet activation using P-selectin as a marker [1]: inhibitory
COc1cccc(NC(=O)C2C(=O)c3ccc(S(=O)(=O)c4ccc5c(c4)C(=O)C(C(=O)Nc4cccc(OC)c4)C5=O)cc3C2=O)c1 (stereo not drawn) [Example 36, 5,5′-sulphonylbis(1,3-dioxo-indan-2-carboxylic acid (3-methoxyphenyl)-amide)]	65%	70%	1190 nM	normalized P-selectin levels [3]: modulate the activity of normalized P-selectin; also recorded: inhibition; preventing P-selectin expression [3]: efficacy
Cc1ncc2n1-c1ccc(Cl)cc1C(c1ccccc1F)=NC2 [Midazolam, midazolam, reference compound]				Human microsome stability Half life t1/2 [4, 6]: 4 min; half-life at 0.5 μM [5]: 0.0883 h
O=C(c1ccc2c(c1)C(=O)C(C(=O)Nc1ccc3c(c1)OCCO3)C2=O)c1ccc2c(c1)C(=O)C(C(=O)Nc1ccc3c(c1)OCCO3)C2=O (stereo not drawn) [Example 29, 5,5′-carbonylbis(1,3-dioxo-indan-2-carboxylic acid (n-(2,3-dihydro-benzo[1,4]dioxin-6-yl))-amide)]			3020 nM	PF4-KKO induced platelet activation using P-selectin as a marker [1]: inhibitory; normalized P-selectin levels [3]: modulate the activity of normalized P-selectin; also recorded: inhibition; preventing P-selectin expression [3]: efficacy
CC(=O)C1C(=O)c2ccc(C(c3ccc4c(c3)C(=O)C(C(C)=O)C4=O)(C(F)(F)F)C(F)(F)F)cc2C1=O (stereo not drawn) [Example 11, 2-acetyl-5-[(2-acetyl-2,3-dihydro-1,3dioxo-1h-inden-5-yl)-1,1,1,3,3,3-hexafluoropropan-2-yl]-2,3-dihydro-1,3-dioxo-1h-indene]			1450 nM	PF4-KKO induced platelet activation using P-selectin as a marker [1]: inhibitory; half-life at 0.5 μM [4, 6]: > 3 h; half-life at 0.5 μM [5]: 1.75 h
O=C(c1ccc2c(c1)C(=O)C(C(=O)NCCc1ccccc1)C2=O)c1ccc2c(c1)C(=O)C(C(=O)NCCc1ccccc1)C2=O (stereo not drawn) [Example 20, 5,5′-carbonylbis(1,3-dioxo-indan-2-carboxylic acid (2-phenylethyl)-amide)]	83%	92%	5750 nM	half-life at 0.5 μM [4, 6]: > 2.42 h; microsomal CLint at 0.5 μM ([4]; Human microsomes, compound conc = 0.5 μM, n = 1, read-out: Human microsome stability Intrinsic Clearance Clint (ml/min/mg protein)): < 9.5 mL/min/mg; intrinsic clearance in human microsome assay ([4]; human microsomes): low intrinsic clearance; stability in human microsome assay ([4]; human microsomes): excellent stability; half-life at 0.5 μM [5]: > 2.42 h; intrinsic clearance in mouse microsome assay ([5]; mouse microsomes): low intrinsic clearance; stability in mouse microsome assay ([5]; mouse microsomes): excellent stability
O=C1c2ccc(S(=O)(=O)c3ccc4c(c3)C(=O)C(C(=O)C3CCOC3)C4=O)cc2C(=O)C1C(=O)C1CCOC1 (stereo not drawn) [Example 147, 5-{[1,3-dioxo-2-(oxolane-3-carbonyl)-2,3-dihydro-1H-inden-5-yl]sulfonyl}-2-(oxolane-3-carbonyl)-2,3-dihydro-1H-indene-1,3-dione]	55%	59%		
CC(C)(C)OC(=O)N1CC[C@H]1C(=O)C1C(=O)c2ccc(S(=O)(=O)c3ccc4c(c3)C(=O)C(C(=O)[C@@H]3CCN3C(=O)OC(C)(C)C)C4=O)cc2C1=O (stereo partly drawn) [Example 138, tert-butyl (2S)-2-[5-({2-[(2S)-1-[(tert-butoxy)carbonyl]azetidine-2-carbonyl]-1,3-dioxo-2,3-dihydro-1H-inden-5-yl}sulfonyl)-1,3-dioxo-2,3-dihydro-1H-indene-2-carbonyl]azetidine-1-carboxylate]			4100 nM	
CC(C)(C)CC(=O)NCC(=O)C1C(=O)c2ccc(S(=O)(=O)c3ccc4c(c3)C(=O)C(C(=O)CNC(=O)CC(C)(C)C)C4=O)cc2C1=O (stereo not drawn) [Example 186, N-{2-[5-({2-[2-(3,3-dimethylbutanamido)acetyl]-1,3-dioxo-2,3-dihydro-1H-inden-5-yl}sulfonyl)-1,3-dioxo-2,3-dihydro-1H-inden-2-yl]-2-oxoethyl}-3,3-dimethylbutanamide]	95%	95%	2600 nM	
O=C(Nc1ccc(Cl)cc1)C1C(=O)c2ccc(S(=O)(=O)c3ccc4c(c3)C(=O)C(C(=O)Nc3ccc(Cl)cc3)C4=O)cc2C1=O (stereo not drawn) [Example 87, N-(4-chlorophenyl)-5-({2-[(4-chlorophenyl)carbamoyl]-1,3-dioxo-2,3-dihydro-1H-inden-5-yl}sulfonyl)-1,3-dioxo-2,3-dihydro-1H-indene-2-carboxamide]			2500 nM	
COC(=O)N1CCC[C@H]1C(=O)C1C(=O)c2ccc(C(=O)c3ccc4c(c3)C(=O)C(C(=O)[C@@H]3CCCN3C(=O)OC)C4=O)cc2C1=O (stereo partly drawn) [Example 114, methyl (2S)-2-(5-{2-[(2S)-1-(methoxycarbonyl)pyrrolidine-2-carbonyl]-1,3-dioxo-2,3-dihydro-1H-indene-5-carbonyl}-1,3-dioxo-2,3-dihydro-1H-indene-2-carbonyl)pyrrolidine-1-carboxylate]	76%	91%	2500 nM	
CSCC[C@H](NC(=O)OC(C)(C)C)C(=O)C1C(=O)c2ccc(Oc3ccc4c(c3)C(=O)C(C(=O)[C@H](CCSC)NC(=O)OC(C)(C)C)C4=O)cc2C1=O (stereo partly drawn) [Example 270, tert-butyl N-[(2S)-1-[5-({2-[(2S)-2-{[(tert-butoxy)carbonyl]amino}-4-(methylsulfanyl)butanoyl]-1,3-dioxo-2,3-dihydro-1H-inden-5-yl}oxy)-1,3-dioxo-2,3-dihydro-1H-inden-2-yl]-4-(methylsulfanyl)-1-oxobutan-2-yl]carbamate]				inhibition at 1 µM [2]: 10%; inhibition at 3 µM [2]: 24%
COCCC(=O)C1C(=O)c2ccc(C(=O)c3ccc4c(c3)C(=O)C(C(=O)CCOC)C4=O)cc2C1=O (stereo not drawn) [Example 176, 2-(3-methoxypropanoyl)-5-[2-(3-methoxypropanoyl)-1,3-dioxo-2,3-dihydro-1H-indene-5-carbonyl]-2,3-dihydro-1H-indene-1,3-dione]	21%	77%		
COc1cc(CCNC(=O)C2C(=O)c3ccc(C(=O)c4ccc5c(c4)C(=O)C(C(=O)NCCc4cc(OC)cc(OC)c4)C5=O)cc3C2=O)cc(OC)c1 (stereo not drawn) [Example 100, N-[2-(3,5-dimethoxyphenyl)ethyl]-5-(2-{[2-(3,5-dimethoxyphenyl)ethyl]carbamoyl}-1,3-dioxo-2,3-dihydro-1H-indene-5-carbonyl)-1,3-dioxo-2,3-dihydro-1H-indene-2-carboxamide]			~13000 nM	
COCCOCCOCCNC(=O)C1C(=O)c2ccc(C(=O)c3ccc4c(c3)C(=O)C(C(=O)NCCOCCOCCOC)C4=O)cc2C1=O (stereo not drawn) [Example 388, N-{2-[2-(2-methoxyethoxy)ethoxy]ethyl}-5-[2-({2-[2-(2-methoxyethoxy)ethoxy]ethyl}carbamoyl)-1,3-dioxo-2,3-dihydro-1H-indene-5-carbonyl]-1,3-dioxo-2,3-dihydro-1H-indene-2-carboxamide]				inhibition at 1 µM [2]: 23%; inhibition at 3 µM [2]: 31%
CC(=O)OC[C@H]1O[C@@H](OC(C)=O)[C@H](NC(=O)C2C(=O)c3ccc(S(=O)(=O)c4ccc5c(c4)C(=O)C(C(=O)N[C@H]4[C@H](OC(C)=O)O[C@H](COC(C)=O)[C@@H](OC(C)=O)[C@@H]4OC(C)=O)C5=O)cc3C2=O)[C@@H](OC(C)=O)[C@@H]1OC(C)=O (stereo partly drawn) [Example 400, [(2R,3S,4R,5R,6S)-3,4,6-tris(acetyloxy)-5-{5-[(1,3-dioxo-2-{[(2S,3R,4R,5S,6R)-2,4,5-tris(acetyloxy)-6-[(acetyloxy)methyl]oxan-3-yl]carbamoyl}-2,3-dihydro-1H-inden-5-yl)sulfonyl]-1,3-dioxo-2,3-dihydro-1H-indene-2-amido}oxan-2-yl]methyl acetate]				inhibition at 1 µM [2]: 17%; inhibition at 3 µM [2]: 21%
